Measured values taken from US20050014215A1, “Method and medium for the detecting/identifying microorganisms with esterase and/or r osidase and/or peptidase and/or sulfatase and/or phosphatase activity” (priority 2000, published 2005).

Assays:
Assay in all cases: Colony coloration on fresh and stored media, Example 10 (6-chloro-3-indolyl-β-N-acetylglucosaminide, Columbia)
Type in all cases: cell-based
Listeria innocua 36 = system: Listeria innocua 36; design: key to intensity of coloration (arbitrary scale): 0: no activity; 0.1: trace of coloration; 0.5: very pale coloration; 1: distinct coloration of low intensity; 2: clear coloration of medium intensity; 3: intense coloration; 4: very intense coloration; —: absence of coloration or intensity; key to color: M: magenta; —: colorless
Protocol: (§1) Two stock solutions of substrate were prepared, one having a concentration of 50 g/l in DMF and the other having a concentration of 50 g/l in a mixture of DMF (40%) and Tween® 20 (60%). A volume corresponding to a final concentration of 175 mg/l of substrate was then added to a supercooled gelled medium, namely Columbia medium not supplemented with blood. […] After three weeks, six weeks, nine weeks and twelve weeks, two media like those described above were prepared for immediate use.
(§2) Microorganisms originating from the Applicant's collection were inoculated from a 0.5 McFarland suspension, by isolation in three quadrants, onto the two media prepared for immediate use and the two media stored at +4° C. The dishes were incubated at 37° C. for 48 hours. The colonies formed were examined visually after 24 and 48 hours of incubation. The coloration of these colonies and the intensity of this coloration were noted.

Listeria ivanovii 18 = system: Listeria ivanovii 18; design: key to intensity of coloration (arbitrary scale): 0: no activity; 0.1: trace of coloration; 0.5: very pale coloration; 1: distinct coloration of low intensity; 2: clear coloration of medium intensity; 3: intense coloration; 4: very intense coloration; —: absence of coloration or intensity; key to color: M: magenta; —: colorless
Protocol: as §1, §2

[1] = system: Pseudomonas aeruginosa 165; design: key: M: magenta; —: colorless
Protocol: as §1, §2

Staphylococcus aureus 20 = system: Staphylococcus aureus 20; design: key: M: magenta; —: colorless
Protocol: as §1, §2

[2] = IT 24 h, fresh medium, DMF Tween 20, 6-week comparison
[3] = IT 24 h, fresh medium, DMF Tween 20, 9-week comparison
[4] = IT 24 h, fresh medium, DMF Tween 20, 12-week comparison
[5] = IT 24 h, fresh medium, DMF, 6-week comparison
[6] = IT 24 h, fresh medium, DMF, 9-week comparison
[7] = IT 24 h, fresh medium, DMF, 12-week comparison
[8] = IT 24 h, medium stored for 6 weeks at +4° C., DMF
[9] = IT 24 h, medium stored for 6 weeks at +4° C., DMF Tween 20
[10] = IT 24 h, medium stored for 9 weeks at +4° C., DMF
[11] = IT 24 h, medium stored for 9 weeks at +4° C., DMF Tween 20
[12] = IT 24 h, medium stored for 12 weeks at +4° C., DMF
[13] = IT 24 h, medium stored for 12 weeks at +4° C., DMF Tween 20
[14] = IT 48 h, fresh medium, DMF Tween 20, 6-week comparison
[15] = IT 48 h, fresh medium, DMF Tween 20, 9-week comparison
[16] = IT 48 h, fresh medium, DMF Tween 20, 12-week comparison
[17] = IT 48 h, fresh medium, DMF, 6-week comparison
[18] = IT 48 h, fresh medium, DMF, 9-week comparison
[19] = IT 48 h, fresh medium, DMF, 12-week comparison
[20] = IT 48 h, medium stored for 6 weeks at +4° C., DMF
[21] = IT 48 h, medium stored for 6 weeks at +4° C., DMF Tween 20
[22] = IT 48 h, medium stored for 9 weeks at +4° C., DMF
[23] = IT 48 h, medium stored for 9 weeks at +4° C., DMF Tween 20
[24] = IT 48 h, medium stored for 12 weeks at +4° C., DMF
[25] = IT 48 h, medium stored for 12 weeks at +4° C., DMF Tween 20

CC(=O)N[C@H]1[C@H](Oc2c[nH]c3cc(Cl)ccc23)O[C@H](CO)[C@@H](O)[C@@H]1O
2: intensity of coloration (arbitrary scale) (Listeria innocua 36; [2]) | intensity of coloration (arbitrary scale) (Listeria innocua 36; [3]) | intensity of coloration (arbitrary scale) (Listeria innocua 36; [4]) | intensity of coloration (arbitrary scale) (Listeria innocua 36; [5]) | intensity of coloration (arbitrary scale) (Listeria innocua 36; [6]) | intensity of coloration (arbitrary scale) (Listeria innocua 36; [7]) | intensity of coloration (arbitrary scale) (Listeria innocua 36; [9]) | intensity of coloration (arbitrary scale) (Listeria innocua 36; [20]) | intensity of coloration (arbitrary scale) (Listeria ivanovii 18; [20]) | intensity of coloration (arbitrary scale) (Listeria ivanovii 18; [25])
1: intensity of coloration (arbitrary scale) (Listeria innocua 36; [8]) | intensity of coloration (arbitrary scale) (Listeria innocua 36; [13]) | intensity of coloration (arbitrary scale) (Listeria innocua 36; [22]) | intensity of coloration (arbitrary scale) (Listeria ivanovii 18; [11]) | intensity of coloration (arbitrary scale) (Listeria ivanovii 18; [13])
3: intensity of coloration (arbitrary scale) (Listeria innocua 36; [14]) | intensity of coloration (arbitrary scale) (Listeria innocua 36; [15]) | intensity of coloration (arbitrary scale) (Listeria innocua 36; [16]) | intensity of coloration (arbitrary scale) (Listeria innocua 36; [17]) | intensity of coloration (arbitrary scale) (Listeria innocua 36; [18]) | intensity of coloration (arbitrary scale) (Listeria innocua 36; [19]) | intensity of coloration (arbitrary scale) (Listeria innocua 36; [21])
0.5: intensity of coloration (arbitrary scale) (Listeria innocua 36; [10]) | intensity of coloration (arbitrary scale) (Listeria innocua 36; [24]) | intensity of coloration (arbitrary scale) (Listeria ivanovii 18; [8]) | intensity of coloration (arbitrary scale) (Listeria ivanovii 18; [22])
M: color (Listeria innocua 36; [2]) | color (Listeria innocua 36; [3]) | color (Listeria innocua 36; [4]) | color (Listeria innocua 36; [5]) | color (Listeria innocua 36; [6]) | color (Listeria innocua 36; [7]) | color (Listeria innocua 36; [8]) | color (Listeria innocua 36; [9]) | color (Listeria innocua 36; [10]) | color (Listeria innocua 36; [11]) | color (Listeria innocua 36; [12]) | color (Listeria innocua 36; [13]) | color (Listeria innocua 36; [14]) | color (Listeria innocua 36; [15]) | color (Listeria innocua 36; [16]) | color (Listeria innocua 36; [17]) | color (Listeria innocua 36; [18]) | color (Listeria innocua 36; [19]) | color (Listeria innocua 36; [20]) | color (Listeria innocua 36; [21]) | color (Listeria innocua 36; [22]) | color (Listeria innocua 36; [23]) | color (Listeria innocua 36; [24]) | color (Listeria innocua 36; [25]) | color (Listeria ivanovii 18; [2]) | color (Listeria ivanovii 18; [3]) | color (Listeria ivanovii 18; [4]) | color (Listeria ivanovii 18; [5]) | color (Listeria ivanovii 18; [6]) | color (Listeria ivanovii 18; [7]) | color (Listeria ivanovii 18; [8]) | color (Listeria ivanovii 18; [9]) | color (Listeria ivanovii 18; [10]) | color (Listeria ivanovii 18; [11]) | color (Listeria ivanovii 18; [12]) | color (Listeria ivanovii 18; [13]) | color (Listeria ivanovii 18; [14]) | color (Listeria ivanovii 18; [15]) | color (Listeria ivanovii 18; [16]) | color (Listeria ivanovii 18; [17]) | color (Listeria ivanovii 18; [18]) | color (Listeria ivanovii 18; [19]) | color (Listeria ivanovii 18; [20]) | color (Listeria ivanovii 18; [21]) | color (Listeria ivanovii 18; [22]) | color (Listeria ivanovii 18; [23]) | color (Listeria ivanovii 18; [24]) | color (Listeria ivanovii 18; [25])
1.5: intensity of coloration (arbitrary scale) (Listeria innocua 36; [11]) | intensity of coloration (arbitrary scale) (Listeria ivanovii 18; [2]) | intensity of coloration (arbitrary scale) (Listeria ivanovii 18; [3]) | intensity of coloration (arbitrary scale) (Listeria ivanovii 18; [4]) | intensity of coloration (arbitrary scale) (Listeria ivanovii 18; [5]) | intensity of coloration (arbitrary scale) (Listeria ivanovii 18; [6]) | intensity of coloration (arbitrary scale) (Listeria ivanovii 18; [7]) | intensity of coloration (arbitrary scale) (Listeria ivanovii 18; [9])
—: color [1, 2] | color [1, 3] | color [1, 4] | color [1, 5] | color [1, 6] | color [1, 7] | color [1, 8] | color [1, 9] | color [1, 10] | color [1, 11] | color [1, 12] | color [1, 13] | color [1, 14] | color [1, 15] | color [1, 16] | color [1, 17] | color [1, 18] | color [1, 19] | color [1, 20] | color [1, 21] | color [1, 22] | color [1, 23] | color [1, 24] | color [1, 25] | color (Staphylococcus aureus 20; [2]) | color (Staphylococcus aureus 20; [3]) | color (Staphylococcus aureus 20; [4]) | color (Staphylococcus aureus 20; [5]) | color (Staphylococcus aureus 20; [6]) | color (Staphylococcus aureus 20; [7]) | color (Staphylococcus aureus 20; [8]) | color (Staphylococcus aureus 20; [9]) | color (Staphylococcus aureus 20; [10]) | color (Staphylococcus aureus 20; [11]) | color (Staphylococcus aureus 20; [12]) | color (Staphylococcus aureus 20; [13]) | color (Staphylococcus aureus 20; [14]) | color (Staphylococcus aureus 20; [15]) | color (Staphylococcus aureus 20; [16]) | color (Staphylococcus aureus 20; [17]) | color (Staphylococcus aureus 20; [18]) | color (Staphylococcus aureus 20; [19]) | color (Staphylococcus aureus 20; [20]) | color (Staphylococcus aureus 20; [21]) | color (Staphylococcus aureus 20; [22]) | color (Staphylococcus aureus 20; [23]) | color (Staphylococcus aureus 20; [24]) | color (Staphylococcus aureus 20; [25])
2.5: intensity of coloration (arbitrary scale) (Listeria innocua 36; [23]) | intensity of coloration (arbitrary scale) (Listeria innocua 36; [25]) | intensity of coloration (arbitrary scale) (Listeria ivanovii 18; [14]) | intensity of coloration (arbitrary scale) (Listeria ivanovii 18; [15]) | intensity of coloration (arbitrary scale) (Listeria ivanovii 18; [16]) | intensity of coloration (arbitrary scale) (Listeria ivanovii 18; [17]) | intensity of coloration (arbitrary scale) (Listeria ivanovii 18; [18]) | intensity of coloration (arbitrary scale) (Listeria ivanovii 18; [19]) | intensity of coloration (arbitrary scale) (Listeria ivanovii 18; [21]) | intensity of coloration (arbitrary scale) (Listeria ivanovii 18; [23])
